Laboratory results taken from patent US4247712A, “Preservation of aqueous systems with 2-chloro-3-oxobutyramide derivatives” (Givaudan Corporation, priority 1979, dated 1981).
≈ marks a conversion by molar mass, not a printed value. Read-outs that look alike come from different tables or passages of the source.

Columns and labels:
Format in all cases: cell-based
Aspergillus niger [1] = assay: General antimicrobial activity, 5-fold serial dilution test in agar (MIC); settings: 168 h, 28° C., seven days, growth only at lower concentration of range, read-out: minimum inhibitory concentration (MIC), F1
Description: (§1) General antibacterial and antifungal activity was evaluated by a 5-fold serial dilution test in agar. In this test, compounds were prepared as 6% solutions in dimethylformamide or ethanol. The 6% solution was then 5-fold serially diluted in test tubes to give the desired concentrations when mixed with agar and poured into sterile Petri dishes. Tryptone glucose extract agar was used for the bacterial testing; mildew glucose agar for the fungal testing. The bacterial plates were spot inoculated with 24-hour nutrient broth cultures and incubated at 37° C. for 48 hours. The fungal plates were spot inoculated with spore suspensions and incubated at 28° C. for seven days. At the end of the incubation periods, all plates were examined for growth. The minimum inhibitory concentration (MIC) for each organism is expressed in Table I. In the ranges presented, growth is observed only at the lower concentration.
(§2) The activity is presented in Tabular Form (Table I) using the following key.

Aspergillus oryzae = assay: as above; settings: 168 h, 28° C., seven days, growth only at lower concentration of range, read-out: minimum inhibitory concentration (MIC), F2
Description: as §1, §2

Aureobasidium pullulans = assay: as above; settings: 168 h, 28° C., seven days, growth only at lower concentration of range, read-out: minimum inhibitory concentration (MIC), F4
Description: as §1, §2

Bacillus subtilis = assay: as above; settings: 37° C., 48 hours, growth only at lower concentration of range, read-out: minimum inhibitory concentration (MIC), B5
Description: as §1, §2

Escherichia coli = assay: as above; settings: 37° C., 48 hours, growth only at lower concentration of range, read-out: minimum inhibitory concentration (MIC), B2
Description: as §1, §2

Penicillium piscarium = assay: as above; settings: 168 h, 28° C., seven days, growth only at lower concentration of range, read-out: minimum inhibitory concentration (MIC), F3
Description: as §1, §2

Proteus vulgaris = assay: as above; settings: 37° C., 48 hours, growth only at lower concentration of range, read-out: minimum inhibitory concentration (MIC), B4
Description: as §1, §2

Pseudomonas aeruginosa [2] = assay: as above; settings: 37° C., 48 hours, growth only at lower concentration of range, read-out: minimum inhibitory concentration (MIC), B3
Description: as §1, §2

Staphylococcus aureus = assay: as above; settings: 37° C., 48 hours, growth only at lower concentration of range, read-out: minimum inhibitory concentration (MIC), B1
Description: as §1, §2

Aspergillus niger [3] = assay: Utility as a cosmetic preservative (cosmetic lotion); settings: weekly reinoculation
Description: (§3) The 2-Chloro-3-oxobutyramide derivatives are effective cosmetic preservatives. Two-fold serial dilutions of 6% solutions of the 2-haloacetoacetic acid derivatives in dimethylformamide were added to a cosmetic lotion of the following formulation: |Stearic acid 1.4 g |Arlacel 60 (sorbitan |monostearate) 0.7 g |Tween 20 Polyoxethylene |(20) sorbitan |monostearate 1.6 g |Distilled water 94.0 g The lotions were inoculated with both Pseudomonas aeruginosa and Aspergillus niger and incubated at 28° C. At weekly intervals, the lotions were examined for microorganisms by conventional streak-plate methods or by macroscopic observation. The lotions were then reinoculated with the test organisms and reincubated.

Pseudomonas aeruginosa [4] = assay: as above; settings: weekly reinoculation
Description: as §3

Pseudomonas aeruginosa [5] = assay: Utility in water and oil emulsions (3.3% cutting oil emulsions); settings: 28° C., weekly reinoculation, read-out: Minimum Inhibitory Concentration Range
Description: The utility of the 2-chloro-3-oxobutyramide derivatives in water and oil emulsions is illustrated below using a commercially available cutting oil. In running these tests, two-fold serial dilutions of 6% solutions of the compound in dimethylformamide was added to 3.3% cutting oil emulsions. The emulsions were prepared by diluting with water a commercially available cutting oil concentrate. The emulsions were inoculated with a culture of Pseudomonas aeruginosa and incubated at 28° C. on a rotary shaker. At weekly intervals, the emulsions were examined for bacteria by conventional streak-plate methods. The emulsions were then reinoculated with Pseudomonas aeruginosa and reincubated. […] indicate the activity range for that compound.

A. niger = assay: Effectiveness as slimicide for pulp and paper mill water systems; settings: range: growth at lower, none at higher, 62.5 = lowest concentration tested, no growth at it; for MIC: Aspergillus niger, week 1, 28° C., read-out: Effectiveness as slimicide (inhibitory concentration range)
Description: (§4) Various quantities of a 6% solution of this compound in dimethylformamide were incorporated into 24 ml of a test substrate composed as follows: 84.4 g Whatman No. 2 powdered cellulose 2.6 g Sodium nitrate 1.0 g Calcium sulfate 6.5 g Maltose 1.0 g Nutrient Broth, Difco 10.0 ml Mersize Rm […] (Monsanto) 2.5 ml 2% Alum 900 ml Distilled water The samples were inoculated with four different organisms and incubated at 28° C. At weekly intervals the samples were examined for the presence of microbial growth and reinoculated during a total incubation period of four weeks.

E. aerogenes = assay: as above; settings: Klebsiella aerogenes, range: growth at lower, read-out: Effectiveness as slimicide (inhibitory concentration range)
Description: as §4

P. aeruginosa = assay: as above; settings: 62.5 = lowest concentration tested, no growth at it; for MIC: Pseudomonas aeruginosa, week 1, 28° C., read-out: Effectiveness as slimicide (inhibitory concentration range)
Description: as §4

P. piscarium = assay: as above; settings: read-out: Effectiveness as slimicide (inhibitory concentration range)
Description: as §4

[6] = Week 1, 3.3% cutting oil emulsion
[7] = Week 2, 3.3% cutting oil emulsion
[8] = Week 3, 3.3% cutting oil emulsion
[9] = Week 4, 3.3% cutting oil emulsion
[10] = week 1, 28° C., none at higher, 62.5 = lowest concentration tested, no growth at it
[11] = week 2, 28° C., none at higher, 62.5 = lowest concentration tested, no growth at it
[12] = week 3, 28° C., none at higher concentration
[13] = week 4, 28° C., none at higher concentration
[14] = week 1, 28° C., 62.5 = lowest concentration tested, no growth at it
[15] = week 2, 28° C., range: growth at lower, none at higher concentration
[16] = week 3, 28° C., range: growth at lower, none at higher concentration
[17] = week 4, 28° C., range: growth at lower, none at higher concentration

MIC (Aspergillus niger [1]) [µg/mL]	MIC (Aspergillus oryzae) [µg/mL]	MIC (Aureobasidium pullulans) [µg/mL]	MIC (Bacillus subtilis) [µg/mL]	MIC (Escherichia coli) [µg/mL]	MIC (Penicillium piscarium) [µg/mL]	MIC (Proteus vulgaris) [µg/mL]	MIC (Pseudomonas aeruginosa [2]) [µg/mL]	MIC (Staphylococcus aureus) [µg/mL]	MIC (Pseudomonas aeruginosa [5]; [6]) [µg/mL]	MIC (Pseudomonas aeruginosa [5]; [7]) [µg/mL]	MIC (Pseudomonas aeruginosa [5]; [8]) [µg/mL]	SMILES	minimum inhibitory concentration effective in preventing microbial growth (Aspergillus niger [3]; Week 1, 28° C.)	minimum inhibitory concentration effective in preventing microbial growth (Aspergillus niger [3]; Week 2, 28° C.)	minimum inhibitory concentration effective in preventing microbial growth (Aspergillus niger [3]; Week 3, 28° C.)	minimum inhibitory concentration effective in preventing microbial growth (Aspergillus niger [3]; Week 4, 28° C.)	minimum inhibitory concentration effective in preventing microbial growth (Pseudomonas aeruginosa [4]; Week 1, 28° C.)	minimum inhibitory concentration effective in preventing microbial growth (Pseudomonas aeruginosa [4]; Week 2, 28° C.)	minimum inhibitory concentration effective in preventing microbial growth (Pseudomonas aeruginosa [4]; Week 3, 28° C.)	minimum inhibitory concentration effective in preventing microbial growth (Pseudomonas aeruginosa [4]; Week 4, 28° C.)	also measured
15.3 to 76.8 (≈ 113 to 567 µM)	15.3 to 76.8 (≈ 113 to 567 µM)	15.3 to 76.8 (≈ 113 to 567 µM)	15.3 to 76.8 (≈ 113 to 567 µM)	15.3 to 76.8 (≈ 113 to 567 µM)	15.3 to 76.8 (≈ 113 to 567 µM)	15.3 to 76.8 (≈ 113 to 567 µM)	15.3 to 76.8 (≈ 113 to 567 µM)	15.3 to 76.8 (≈ 113 to 567 µM)	8 to 16 (≈ 59 to 118 µM)	63 to 125 (≈ 465 to 922 µM)	63 to 125 (≈ 465 to 922 µM)	CC(=O)C(Cl)C(N)=O (centres unmarked) [2-Chloro-3-oxobutyramide]	5 (63-125 mcg/gm)	5 (63-125 mcg/gm)	4 (125-250 mcg/gm)	2 (500-1000 mcg/gm)	5 (63-125 mcg/gm)	5 (63-125 mcg/gm)	4 (125-250 mcg/gm)	4 (125-250 mcg/gm)	MIC (Pseudomonas aeruginosa [5]; [9]): 63 to 125 µg/mL (≈ 465 to 922 µM); MIC (A. niger): 62.5 µg/mL (≈ 461 µM); Effectiveness as slimicide (inhibitory concentration range) (A. niger; week 2, 28° C.): 62.5 µg/mL; Effectiveness as slimicide (inhibitory concentration range) (A. niger; week 3, 28° C.): 62.5 µg/mL; Effectiveness as slimicide (inhibitory concentration range) (A. niger; week 4, 28° C.): 62.5 µg/mL; MIC (E. aerogenes; [10]): 62.5 µg/mL (≈ 461 µM); MIC (E. aerogenes; [11]): 62.5 µg/mL (≈ 461 µM); MIC (E. aerogenes; [12]): 62.5 to 125 µg/mL (≈ 461 to 922 µM); MIC (E. aerogenes; [13]): 62.5 to 125 µg/mL (≈ 461 to 922 µM); MIC (P. aeruginosa): 62.5 µg/mL (≈ 461 µM); Effectiveness as slimicide (inhibitory concentration range) (P. aeruginosa; week 2, 28° C.): 62.5 µg/mL; Effectiveness as slimicide (inhibitory concentration range) (P. aeruginosa; week 3, 28° C.): 62.5 µg/mL; Effectiveness as slimicide (inhibitory concentration range) (P. aeruginosa; week 4, 28° C.): 62.5 µg/mL; MIC (P. piscarium; [14]): 62.5 µg/mL (≈ 461 µM); MIC (P. piscarium; [15]): 62.5 to 125 µg/mL (≈ 461 to 922 µM); MIC (P. piscarium; [16]): 125 to 250 µg/mL (≈ 922 to 1840 µM); MIC (P. piscarium; [17]): 125 to 250 µg/mL (≈ 922 to 1840 µM)
76.8 to 384 (≈ 432 to 2160 µM)	76.8 to 384 (≈ 432 to 2160 µM)	76.8 to 384 (≈ 432 to 2160 µM)	76.8 to 384 (≈ 432 to 2160 µM)	15.3 to 76.8 (≈ 86.2 to 432 µM)	76.8 to 384 (≈ 432 to 2160 µM)	76.8 to 384 (≈ 432 to 2160 µM)	15.3 to 76.8 (≈ 86.2 to 432 µM)	76.8 to 384 (≈ 432 to 2160 µM)	32 to 63 (≈ 180 to 355 µM)	63 to 125 (≈ 355 to 704 µM)	125 to 500 (≈ 704 to 2820 µM)	CC(=O)NC(=O)C(Cl)C(C)=O (centres unmarked) [N-Acetyl-2-Chloro-3-oxobutyramide, N-Acetyl-2-chloro-3-oxobutyramide]	5 (63-125 mcg/gm)	4 (125-250 mcg/gm)	3 (250-500 mcg/gm)	2 (500-1000 mcg/gm)	5 (63-125 mcg/gm)	5 (63-125 mcg/gm)	4 (125-250 mcg/gm)	4 (125-250 mcg/gm)	MIC (Pseudomonas aeruginosa [5]; [9]): 125 to 500 µg/mL (≈ 704 to 2820 µM); MIC (A. niger): 62.5 to 125 µg/mL (≈ 352 to 704 µM); Effectiveness as slimicide (inhibitory concentration range) (A. niger; week 2, 28° C.): 62.5 to 125 µg/mL; Effectiveness as slimicide (inhibitory concentration range) (A. niger; week 3, 28° C.): 62.5 to 125 µg/mL; Effectiveness as slimicide (inhibitory concentration range) (A. niger; week 4, 28° C.): 62.5 to 125 µg/mL; MIC (E. aerogenes; [10]): 62.5 to 125 µg/mL (≈ 352 to 704 µM); MIC (E. aerogenes; [11]): 125 to 250 µg/mL (≈ 704 to 1410 µM); MIC (E. aerogenes; [12]): 250 to 500 µg/mL (≈ 1410 to 2820 µM); MIC (E. aerogenes; [13]): 250 to 500 µg/mL (≈ 1410 to 2820 µM); MIC (P. aeruginosa): 62.5 µg/mL (≈ 352 µM); Effectiveness as slimicide (inhibitory concentration range) (P. aeruginosa; week 2, 28° C.): 62.5 µg/mL; Effectiveness as slimicide (inhibitory concentration range) (P. aeruginosa; week 3, 28° C.): 62.5 µg/mL; Effectiveness as slimicide (inhibitory concentration range) (P. aeruginosa; week 4, 28° C.): 62.5 µg/mL; MIC (P. piscarium; [14]): 62.5 µg/mL (≈ 352 µM); MIC (P. piscarium; [15]): 62.5 to 125 µg/mL (≈ 352 to 704 µM); MIC (P. piscarium; [16]): 62.5 to 125 µg/mL (≈ 352 to 704 µM); MIC (P. piscarium; [17]): 62.5 to 125 µg/mL (≈ 352 to 704 µM)
76.8 to 384 (≈ 370 to 1850 µM)	76.8 to 384 (≈ 370 to 1850 µM)	76.8 to 384 (≈ 370 to 1850 µM)	76.8 to 384 (≈ 370 to 1850 µM)	76.8 to 384 (≈ 370 to 1850 µM)	76.8 to 384 (≈ 370 to 1850 µM)	76.8 to 384 (≈ 370 to 1850 µM)	76.8 to 384 (≈ 370 to 1850 µM)	76.8 to 384 (≈ 370 to 1850 µM)	32 to 63 (≈ 154 to 303 µM)	63 to 125 (≈ 303 to 602 µM)	63 to 125 (≈ 303 to 602 µM)	CCOC(=O)NC(=O)C(Cl)C(C)=O (centres unmarked) [R1=H, R2=COOC2 H5, N-Carboethoxy-2-chloroacetoacetamide]	4 (125-250 mcg/gm)	3 (250-500 mcg/gm)	3 (250-500 mcg/gm)	3 (250-500 mcg/gm)	5 (63-125 mcg/gm)	4 (125-250 mcg/gm)	4 (125-250 mcg/gm)	4 (125-250 mcg/gm)	MIC (Pseudomonas aeruginosa [5]; [9]): 125 to 500 µg/mL (≈ 602 to 2410 µM)
